Reference: patent US8906414B1, “Methods and compositions for improving bioavailability of epigallocatechin gallate (EGCG)” (University of South Florida, priority 2009, dated 2014)

Key:
[1] = Total EGCG concentration in blood and brain tissues after 4 weeks of treatment; assay type: in vivo; conditions: after 4 weeks of treatment at a maximum dose (300 mg/kg)
Water solubility of EGCG = assay type: physicochemical
SweAPP N2a cells = conditions: free EGCG (Rezai-Zadeh et al., 2005); cited from earlier work
[2] = oral dose of 800 mg/70 kg/day; cited from earlier work

O=C(O[C@@H]1Cc2c(O)cc(O)cc2O[C@@H]1c1cc(O)c(O)c(O)c1)c1cc(O)c(O)c(O)c1 [EGCG, (−)-epigallocatechin-3-gallate]
total EGCG concentration in blood and brain tissues [1]: 1000 to 1300 ng/mL | water solubility (Water solubility of EGCG): poorly water soluble | EGCG concentration necessary for promoting APP α-secretase cleavage (SweAPP N2a cells): 1000 to 2000 ng/mL | EGCG in human plasma [2]: approximately 400 ng/ml
